Measurements: ChEMBL document CHEMBL1201862, “PubChem BioAssay data set” (2004)
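1) Cells in 96-well plates. 2) Compound, 48 h, 5 concentrations. 3) Linear interpolation between surrounding doses. 4) Unreached endpoint = highest concentration. GI50: concentration for 50% inhibition of growth.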 The source made the active and inactive calls. Rule as the data show it: active = GI50 up to about 1.1 µM and inactive = higher.

What was measured:
Assay in all cases: DTP human tumour cell line panel, 48 h
Malme-3M = test system: Malme-3M
SF-295 = test system: SF-295
786-0 = test system: 786-0
CAKI-1 = test system: CAKI-1
KM12 = test system: KM12
SR = test system: SR
HOP-62 = test system: HOP-62
UACC-257 = test system: UACC-257
A549 = test system: A549
LOX IMVI = test system: LOX IMVI
SK-MEL-5 = test system: SK-MEL-5
NCI-H522 = test system: NCI-H522
HOP-92 = test system: HOP-92
UACC-62 = test system: UACC-62
OVCAR-4 = test system: OVCAR-4
IGROV-1 = test system: IGROV-1
RPMI-8226 = test system: RPMI-8226

Measured: GI50

CC(C)(C)/N=C/N1C=Cc2nc3ccccc3cc2C1
inactive: Malme-3M > 100 µM | SF-295 > 100 µM | 786-0 > 100 µM | CAKI-1 > 100 µM | KM12 > 100 µM | SR > 100 µM | HOP-62 > 100 µM | UACC-257 > 100 µM | A549 > 100 µM | LOX IMVI 26.7 µM | SK-MEL-5 > 100 µM | NCI-H522 > 100 µM | HOP-92 > 100 µM | UACC-62 > 100 µM | OVCAR-4 > 100 µM | IGROV-1 > 100 µM

O=[N+]([O-])c1nccn1COCCF
inactive: Malme-3M > 100 µM | SF-295 > 100 µM | 786-0 > 100 µM | CAKI-1 > 100 µM | KM12 > 100 µM | RPMI-8226 > 100 µM | SR > 100 µM | HOP-62 > 100 µM | UACC-257 > 100 µM | A549 > 100 µM | LOX IMVI > 100 µM | SK-MEL-5 > 100 µM | NCI-H522 > 100 µM | HOP-92 > 100 µM | UACC-62 > 100 µM | OVCAR-4 > 100 µM | IGROV-1 > 100 µM

O=C1OC(c2ccccc2)=N/C1=C/NC(Cc1c[nH]c2ccccc12)C(=O)O (configuration not stated)
inactive: Malme-3M > 100 µM | SF-295 > 100 µM | 786-0 > 100 µM | RPMI-8226 > 100 µM | SR > 100 µM | HOP-62 > 100 µM | UACC-257 > 100 µM | A549 > 100 µM | LOX IMVI > 100 µM | SK-MEL-5 > 100 µM | NCI-H522 68.4 µM | HOP-92 > 100 µM | UACC-62 > 100 µM | OVCAR-4 > 100 µM | IGROV-1 > 100 µM

CC(C)OP(=O)(OC(C)C)/C(=N/Nc1ccc([N+](=O)[O-])cc1)NN
inactive: Malme-3M > 100 µM | 786-0 > 100 µM | CAKI-1 > 100 µM | KM12 > 100 µM | RPMI-8226 88.3 µM | SR > 100 µM | HOP-62 > 100 µM | UACC-257 24.9 µM | A549 75.3 µM | LOX IMVI > 100 µM | SK-MEL-5 35.7 µM | NCI-H522 47.8 µM | HOP-92 65 µM | UACC-62 34.4 µM | OVCAR-4 > 100 µM

[O-]/N=[N+](/[O-])C1CCCCC1=[N+]1CCOCC1 (configuration not stated)
inactive: Malme-3M > 100 µM | SF-295 > 100 µM | 786-0 > 100 µM | CAKI-1 > 100 µM | KM12 > 100 µM | RPMI-8226 > 100 µM | SR > 100 µM | HOP-62 > 100 µM | UACC-257 > 100 µM | A549 > 100 µM | NCI-H522 > 100 µM | HOP-92 > 100 µM | UACC-62 > 100 µM | OVCAR-4 > 100 µM

O=C(c1cc2ccccc2[nH]1)C(O)(c1cc2ccccc2[nH]1)c1cc2ccccc2[nH]1
inactive: Malme-3M > 246 µM | SF-295 154 µM | 786-0 > 246 µM | CAKI-1 > 246 µM | KM12 > 246 µM | RPMI-8226 > 246 µM | SR > 246 µM | HOP-62 > 246 µM | UACC-257 > 246 µM | A549 > 246 µM | LOX IMVI > 246 µM | SK-MEL-5 > 246 µM | NCI-H522 > 246 µM | HOP-92 > 246 µM | UACC-62 > 246 µM | IGROV-1 > 246 µM

CC(=O)c1sc(Nc2nnc(-c3ccc(-c4nnc(Nc5nc(C)c(C(C)=O)s5)o4)cc3)o2)nc1C
inactive: Malme-3M > 100 µM | SF-295 > 100 µM | 786-0 > 100 µM | CAKI-1 > 10 µM | KM12 > 10 µM | RPMI-8226 > 100 µM | SR > 100 µM | HOP-62 > 100 µM | UACC-257 > 100 µM | A549 > 10 µM | LOX IMVI > 100 µM | NCI-H522 > 10 µM | HOP-92 > 100 µM | UACC-62 > 100 µM | OVCAR-4 > 100 µM | IGROV-1 > 100 µM

O=C1C(Cl)=C(Cl)C(=O)N1C1C2CC3CC(C2)CC1C3 (configuration not stated)
inactive: Malme-3M > 100 µM | SF-295 > 100 µM | 786-0 > 100 µM | CAKI-1 38.3 µM | RPMI-8226 27 µM | SR 31 µM | HOP-62 > 100 µM | UACC-257 > 100 µM | A549 > 100 µM | LOX IMVI > 100 µM | SK-MEL-5 > 100 µM | NCI-H522 27.9 µM | HOP-92 > 100 µM | UACC-62 > 100 µM | OVCAR-4 > 100 µM | IGROV-1 > 100 µM

Clc1ccc2cccc3c2c1C1OC3c2ccccc21 (configuration not stated)
inactive: Malme-3M 34.4 µM | SF-295 > 100 µM | 786-0 > 100 µM | KM12 71.4 µM | RPMI-8226 > 100 µM | SR > 100 µM | HOP-62 > 100 µM | UACC-257 > 100 µM | A549 > 100 µM | LOX IMVI > 100 µM | NCI-H522 > 100 µM | HOP-92 70.8 µM | UACC-62 > 100 µM | IGROV-1 > 100 µM

COC(=O)/C(C=O)=C/Sc1ccccc1
inactive: SF-295 30.1 µM | 786-0 15.2 µM | CAKI-1 24.2 µM | KM12 24.1 µM | RPMI-8226 65.5 µM | SR 40.1 µM | HOP-62 45.4 µM | UACC-257 29.8 µM | A549 11.3 µM | LOX IMVI 8.65 µM | SK-MEL-5 14.2 µM | NCI-H522 11.7 µM | HOP-92 52.6 µM | UACC-62 22.2 µM | OVCAR-4 45 µM | IGROV-1 13.9 µM

Cc1ccc(NCC2(/N=C/c3ccccc3)OC(CO)C(O)C2O)cc1 (configuration not stated)
inactive: Malme-3M 37.2 µM | SF-295 24.3 µM | 786-0 49.5 µM | CAKI-1 46.6 µM | KM12 67.9 µM | RPMI-8226 35 µM | SR 27.1 µM | HOP-62 12.4 µM | UACC-257 > 100 µM | A549 44 µM | SK-MEL-5 23.3 µM | NCI-H522 37.5 µM | HOP-92 64 µM | UACC-62 54.1 µM | OVCAR-4 60.1 µM | IGROV-1 > 100 µM

C[n+]1c2ccccc2c(NC(CCCNC(=N)N)C(=O)O)c2ccccc21 (configuration not stated)
inactive: Malme-3M > 100 µM | SF-295 > 100 µM | 786-0 > 100 µM | CAKI-1 > 100 µM | KM12 > 100 µM | RPMI-8226 7.55 µM | SR > 100 µM | HOP-62 > 100 µM | UACC-257 > 100 µM | A549 > 100 µM | SK-MEL-5 85.9 µM | NCI-H522 99.1 µM | HOP-92 > 100 µM | UACC-62 > 100 µM | OVCAR-4 > 100 µM | IGROV-1 > 100 µM

O=S1(=O)OCCOS(=O)(=O)C1(Br)Br
inactive: Malme-3M > 100 µM | SF-295 > 100 µM | 786-0 > 100 µM | CAKI-1 > 100 µM | KM12 > 100 µM | RPMI-8226 > 100 µM | SR > 100 µM | HOP-62 > 100 µM | UACC-257 > 100 µM | A549 > 100 µM | SK-MEL-5 > 100 µM | NCI-H522 > 100 µM | HOP-92 > 100 µM | UACC-62 > 100 µM | OVCAR-4 > 100 µM
